Measured values as given in ChEMBL document CHEMBL5335785, “Structure-based virtual screening discovers potent and selective adenosine A1 receptor antagonists” (Eur J Med Chem, 2023).

Legend:
[1] = molecular target: T1, Adenosine receptor A1 (Homo sapiens) (UniProt P30542); details: Flp-In-CHO, time 60-90 min
T1 sequence (whole entry): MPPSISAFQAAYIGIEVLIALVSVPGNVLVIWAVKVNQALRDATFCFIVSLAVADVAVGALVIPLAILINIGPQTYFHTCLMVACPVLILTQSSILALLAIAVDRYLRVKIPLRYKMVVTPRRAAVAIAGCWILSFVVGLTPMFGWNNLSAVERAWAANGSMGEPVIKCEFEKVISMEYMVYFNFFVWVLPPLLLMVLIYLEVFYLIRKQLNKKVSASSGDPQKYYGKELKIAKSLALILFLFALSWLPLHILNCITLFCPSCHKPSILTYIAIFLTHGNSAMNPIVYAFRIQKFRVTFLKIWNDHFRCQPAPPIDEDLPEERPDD

Adenosine receptor A2a [2] = molecular target: T2, Adenosine receptor A2a (Homo sapiens, UniProt P29274); details: Flp-In-CHO, time 60-90 min
T2 sequence (P29274 whole entry): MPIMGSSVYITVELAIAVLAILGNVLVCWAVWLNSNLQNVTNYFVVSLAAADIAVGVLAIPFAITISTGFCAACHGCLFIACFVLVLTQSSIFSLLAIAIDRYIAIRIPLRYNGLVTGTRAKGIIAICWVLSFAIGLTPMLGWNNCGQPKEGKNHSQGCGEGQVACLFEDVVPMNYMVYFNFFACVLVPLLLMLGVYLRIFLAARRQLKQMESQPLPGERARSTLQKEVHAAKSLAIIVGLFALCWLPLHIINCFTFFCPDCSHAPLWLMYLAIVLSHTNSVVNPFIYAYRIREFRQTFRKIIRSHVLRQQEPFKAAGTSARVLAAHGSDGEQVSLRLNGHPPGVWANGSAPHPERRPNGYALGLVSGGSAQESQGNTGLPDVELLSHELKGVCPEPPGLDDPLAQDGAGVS

Adenosine receptor A2a [3] = molecular target: T2, Adenosine receptor A2a; assay: Antagonist activity at human A2AR expressed in Flp-In-CHO cells assessed as NECA-mediated cAMP accumulation incubated for 30 to 60 mins followed by NECA addition measured after 30 mins by LANCE cAMP assay (reference value: 8.38 +/- 0.03); type: functional, cell-based
Adenosine receptor A1 [4] = molecular target: T3, Adenosine receptor A1 (Homo sapiens, UniProt P30542); assay: Antagonist activity at human A1R expressed in Flp-In-CHO cells assessed as NECA-mediated reduction in forskolin-stimulated cAMP accumulation incubated for 30 to 60 mins followed by forskolin/NECA addition measured after 30 mins by LANCE cAMP assay (reference value: 8.74 +/- 0.08); type: functional, cell-based
T3 sequence (P30542 whole entry): T1 sequence (whole entry)

Adenosine receptor A1 [5] = molecular target: T3, Adenosine receptor A1; assay: Displacement of [3H]DPCPX from human A1R expressed in Flp-In-CHO cells incubated for 12 hrs by microbeta plate counter analysis; type: cell-based

## CC1(C(=O)Nc2nc3c(s2)Cc2ccccc2-3)CCC(=O)CC1
[1]; filed as antagonist
  pKb: 7.85
Adenosine receptor A2a [2]; filed as antagonist
  pKb: 7.25

## CC1(CNc2ncc(-c3ccncc3)c(-c3cccs3)n2)COC1
[1]
  pKb: < 5.5
Adenosine receptor A2a [2]
  pKb: < 5.5

## O=C(CC1CCCC1)N1CCc2c(nc(N3CCCC3)[nH]c2=O)C1
Adenosine receptor A2a [3]
  EC50: 4.47 nM

## O=C(Nc1noc(-c2ccccc2)n1)c1cccc(Cl)c1
Adenosine receptor A2a [3]
  EC50: 10.5 nM
Adenosine receptor A1 [4]
  EC50: 2.82 nM

## Cc1c(C(=O)Nc2nc3c(s2)Cc2ccccc2-3)ccc2cncn12
[1]
  pKb: < 5.5
Adenosine receptor A2a [2]
  pKb: < 5.5

## CCC1CCC(C(=O)Nc2nc3c(s2)Cc2ccccc2-3)CC1 (stereo unspecified)
[1]
  pKb: < 5.5
Adenosine receptor A2a [2]
  pKb: < 5.5

## CC(C)N1CC(C(=O)Nc2nc3ccccc3[nH]2)CC1=O (stereo unspecified)
Adenosine receptor A2a [3]
  EC50: 20.4 nM

## CC(C)(CNc1ncc(-c2ccncc2)c(-c2cccs2)n1)C1CCC1
[1]; filed as antagonist
  pKb: 7.15
Adenosine receptor A2a [2]; filed as antagonist
  pKb: 6.09

## CC(=O)NC(CC(=O)Nc1nc(C(C)=O)cs1)c1ccc(C)cc1 (stereo unspecified)
Adenosine receptor A1 [4]
  EC50: 2.57 nM

## CC(Sc1nnc(C(C)C)[nH]1)C(=O)c1ccccc1 (stereo unspecified)
Adenosine receptor A1 [4]
  EC50: 3.31 nM

## Cc1cccnc1C(=O)Nc1nc2c(s1)Cc1ccccc1-2
[1]
  pKb: < 5.5

## CC(=O)N1CCC(Nc2ncc(-c3ccncc3)c(-c3cccs3)n2)CC1
[1]; filed as antagonist
  pKb: 7.82
Adenosine receptor A2a [2]; filed as antagonist
  pKb: 6.57

## C=C1CCC(C(=O)Nc2nc3c(s2)Cc2ccccc2-3)CC1
[1]; filed as antagonist
  pKb: 7.7
Adenosine receptor A2a [2]; filed as antagonist
  pKb: 7.03

## O=C(Nc1nc(C2CC2)cs1)C1COc2ccccc2C1 (stereo unspecified)
Adenosine receptor A1 [4]
  EC50: 3.24 nM

## Cn1c(=O)c2[nH]c(N(CCO)CCO)nc2n(C)c1=O
Adenosine receptor A2a [3]
  EC50: 6.92 nM
Adenosine receptor A1 [4]
  EC50: 17 nM
Adenosine receptor A1 [5]; read-out: pKi (converted)
  Ki: 2820 nM

## COc1ccc(C(=O)Nc2nc(C)c3cc4c(cc3n2)OCO4)cc1
Adenosine receptor A1 [4]
  EC50: 1.91 nM

## Cc1coc(C(=O)Nc2nc3c(s2)Cc2ccccc2-3)c1C
[1]
  pKb: < 5.5

## c1csc(-c2nc(NC3CCC4(CC3)OCCO4)ncc2-c2ccncc2)c1
[1]; filed as antagonist
  pKb: 7.07
Adenosine receptor A2a [2]; filed as antagonist
  pKb: 6.53

## Cc1nnsc1C(=O)Nc1nc2c(s1)Cc1ccccc1-2
Adenosine receptor A2a [3]
  EC50: 63.1 nM

## CC1(C(=O)Nc2nc3c(s2)Cc2ccccc2-3)CCCC1
[1]; filed as antagonist
  pKb: 7.86
Adenosine receptor A2a [2]; filed as antagonist
  pKb: 7.4

## O=C(Nc1nc2c(s1)Cc1ccccc1-2)C12CC3CC(CC1C3)C2
[1]; filed as antagonist
  pKb: 7.57
Adenosine receptor A2a [2]; filed as antagonist
  pKb: 6.3
Adenosine receptor A1 [5]; read-out: Ki
  Ki: 72 nM

## c1csc(-c2nc(NC3CCCCCC3)ncc2-c2ccncc2)c1
[1]; filed as antagonist
  pKb: 8.1
Adenosine receptor A2a [2]; filed as antagonist
  pKb: 6.79

## O=C(Nc1nc2c(s1)Cc1ccccc1-2)c1ncn2cc(Cl)ccc12
[1]
  pKb: < 5.5

## COCC(O)CNc1ncc(C)c(-c2ncnn2C)n1 (stereo unspecified)
Adenosine receptor A2a [3]
  EC50: 4.57 nM
Adenosine receptor A1 [4]
  EC50: 2.34 nM

## O=C(Nc1nc2c(s1)Cc1ccccc1-2)C1CCCCCC1
[1]; filed as antagonist
  pKb: 7.29
Adenosine receptor A2a [2]; filed as antagonist
  pKb: 6.87

## CC1(CNc2ncc(-c3ccncc3)c(-c3cccs3)n2)OCCO1
[1]; filed as antagonist
  pKb: 6.38
Adenosine receptor A2a [2]
  pKb: < 5.5

## O=C(Nc1nc2ccccc2s1)N(CCO)C1CC1
Adenosine receptor A2a [3]
  EC50: 6.03 nM
Adenosine receptor A1 [4]
  EC50: 3.63 nM

## c1ccc(CNc2nc(N3CCCCC3)c3nccnc3n2)nc1
Adenosine receptor A1 [4]
  EC50: 2.51 nM

## COC1(OC)CC(C)(C(=O)Nc2nc3c(s2)Cc2ccccc2-3)C1
[1]; filed as antagonist
  pKb: 6.7
Adenosine receptor A2a [2]; filed as antagonist
  pKb: 7.25

## O=C(Nc1nc2c(s1)Cc1ccccc1-2)C1CCCCC1
[1]; filed as antagonist
  pKb: 7.24
Adenosine receptor A2a [2]; filed as antagonist
  pKb: 7

## Cc1ccc2nc(C(=O)Nc3cnc4n3CCCC4)cn2c1
Adenosine receptor A2a [3]
  EC50: 4.57 nM

## CCOc1nc(NC(CO)c2ccco2)ncc1Br (stereo unspecified)
Adenosine receptor A1 [4]
  EC50: 14.8 nM
Adenosine receptor A1 [5]; read-out: pKi (converted)
  Ki: 2450 nM

## Cc1cccc(C(=O)Nc2nc3c(s2)Cc2ccccc2-3)c1C
[1]; filed as antagonist
  pKb: 6.67
Adenosine receptor A2a [2]
  pKb: < 5.5
